Here are results for 20 compounds from US11884675B2, “Heterocyclic compounds as triggering receptor expressed on myeloid cells 2 agonists and methods of use” (AMGEN INC., priority 2020, dated 2024).

A word on the EC50: it is the concentration giving half of the maximal effect.

For this experiment, the target named is hTREM2 (Homo sapiens, UniProt Q9NZC2). Briefly: TREM2 activity by cellular Syk phosphorylation (AlphaScreen/AlphaLISA) in TREM2/DAP12-HEK cells, used for Examples 1-305. The format is cell-based. Details: expressed in transfected cells. The note with it: HEK293 Cells. The procedure, abridged: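 Phospho-Syk (Tyr525/526) over total Syk quantified by AlphaScreen in lysates of cloned TREM2/DAP12-overexpressing HEK293 cells after 45 min compound treatment at room temperature, 1% final DMSO. Values expressed relative to 100 nM anti-TREM2 antibody (positive) and isotype IgG (negative) controls; curves fitted with 4-parameter logistic model.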
Chain of hTREM2 (Q9NZC2 19-230): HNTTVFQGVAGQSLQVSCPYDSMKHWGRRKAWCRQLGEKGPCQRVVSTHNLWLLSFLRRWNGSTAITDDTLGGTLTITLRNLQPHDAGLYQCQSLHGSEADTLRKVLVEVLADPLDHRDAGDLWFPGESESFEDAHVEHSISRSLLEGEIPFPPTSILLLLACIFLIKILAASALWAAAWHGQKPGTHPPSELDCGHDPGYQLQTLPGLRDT
Chain of hTREM2 (O43914 22-113 partner): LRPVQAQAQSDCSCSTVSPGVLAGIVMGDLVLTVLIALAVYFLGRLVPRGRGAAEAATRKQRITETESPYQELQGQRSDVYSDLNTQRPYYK

Regarding `Cc1nc2nc(N3CCO[C@@H](c4cnn(C)c4)C3)nc([C@H]3C[C@H](C(F)(F)F)C3)c2nc1C` [Example 42, 6,7-dimethyl-2-((2S)-2-(1-methyl-1H-pyrazol-4-yl)-4-morpholinyl)-4-(trans-3-(trifluoromethyl)cyclobutyl)pteridine], the EC50 was at most 50 nM; the “hTREM2 Emax” value is “++ (Emax>100 and ≤150)”. For the compound `Cc1cc2c(OC[C@H]3C[C@@H](C(F)(F)F)C3)nc(N3CCO[C@@H](c4cnn(C)c4)C3)nc2nc1C` [Example 109, 6,7-dimethyl-2-((2S)-2-(1-methyl-1H-pyrazol-4-yl)-4-morpholinyl)-4-((cis-3-(trifluoromethyl)cyclobutyl)methoxy)pyrido[2,3-d]pyrimidine], the EC50 is 3000 to 100000 nM. Consider `Cc1ccc2c(-c3ccc(F)cc3F)nc([C@@H]3CCO[C@H](c4cnn(C)c4)C3)nc2n1` [Example 290, 4-(2,4-difluorophenyl)-7-methyl-2-((2S,4R)-2-(1-methyl-1H-pyrazol-4-yl)tetrahydro-2H-pyran-4-yl)pyrido[2,3-d] pyrimidine], for which the EC50 fell in the range of 50 to 500 nM; the “hTREM2 Emax” value was “+++ (Emax>150 and ≤250)”. Turning to `Cc1nc2nc(N3CC[C@H](C(F)F)C3)nc(-c3ccc(Cl)cc3F)c2nc1C` [Example 247, (S)-4-(4-chloro-2-fluorophenyl)-2-(3-(difluoromethyl)pyrrolidin-1-yl)-6,7-dimethylpteridine], the EC50 was 50 to 500 nM; the “hTREM2 Emax” value was “+++ (Emax>150 and ≤250)”. Regarding `Cc1nc2nc([C@H]3CCO[C@H](c4cnn(C)c4)C3)nc(-c3ccc(F)cc3F)c2nc1C` [Example 263, 4-(2,4-difluorophenyl)-6,7-dimethyl-2-((2S,4S)-2-(1-methyl-1H-pyrazol-4-yl)tetrahydro-2H-pyran-4-yl)pteridine], the EC50 was in the range of 500 to 3000 nM; the “hTREM2 Emax” value was “+++ (Emax>150 and ≤250)”. Consider `Cc1cc([C@H]2C[C@H](c3nc(-c4ccc(Cl)cc4F)c4nc(C)c(C)nc4n3)CCO2)ccn1` [Example 273, 4-(4-chloro-2-fluorophenyl)-6,7-dimethyl-2-((2R,4R)-2-(2-methylpyridin-4-yl)tetrahydro-2H-pyran-4-yl)pteridine], for which the EC50 is at most 50 nM; the “hTREM2 Emax” value was “+++ (Emax>150 and ≤250)”. For `Cc1nc2nc(N3CCO[C@H]([C@H]4CCOC4)C3)nc(-c3ccc(F)cc3F)c2nc1C` (single isomer, unassigned) [Example 36], the EC50 was 50 to 500 nM; the “hTREM2 Emax” value is “+++ (Emax>150 and ≤250)”.

Turning to `Cc1nc2nc(N3CCO[C@@H](c4cnn(C)c4)C3)nc(C3CCC(C)(C)CC3)c2nc1C` [Example 130, 4-(4,4-dimethylcyclohexyl)-6,7-dimethyl-2-((2S)-2-(1-methyl-1H-pyrazol-4-yl)-4-morpholinyl) pteridine], the EC50 is at most 50 nM; the “hTREM2 Emax” value is “+ (Emax>45 and ≤100)”.

For the compound `Cc1cnc2nc(N3CCO[C@@H](c4cnn(C)c4)C3)cc(-c3ccc(Cl)cc3F)c2n1` [Example 158, 8-(4-chloro-2-fluorophenyl)-2-methyl-6-((2S)-2-(1-methyl-1H-pyrazol-4-yl)-4-morpholinyl)pyrido [2,3-b]pyrazine], the EC50 was 50 to 500 nM; the “hTREM2 Emax” value was “+++ (Emax>150 and ≤250)”. As for `Cc1cnc2c(-c3ccc(Cl)cc3F)nc([C@@H]3CCO[C@H](c4cnn(C)c4)C3)cc2n1` [Example 248, 5-(4-chloro-2-fluorophenyl)-2-methyl-7-((2S,4R)-2-(1-methyl-1H-pyrazol-4-yl)tetrahydro-2H-pyran-4-yl)pyrido[3,4-b] pyrazine], the EC50 lay in the range of 500 to 3000 nM; the “hTREM2 Emax” value was “+++ (Emax>150 and ≤250)”. On to `Cc1cc2c(-c3ccc(F)cc3F)nc(N3CCO[C@@H](c4cnn(C)c4)C3)nc2nc1C` [Example 166, 4-(2,4-difluorophenyl)-6,7-dimethyl-2((2S)-2-(1-methyl-1H-pyrazol-4-yl)-4-morpholinyl) pyrido[2,3-d]pyrimidine], for which the EC50 is at most 50 nM and the “hTREM2 Emax” value is recorded as “++++ (Emax>250)”. `Cc1nc2nc(N3CCO[C@@H](c4cnn(C)c4)C3)nc(-c3ccc(F)c(F)c3)c2nc1C` [Example 60, 4-(3,4-difluorophenyl)-6,7-dimethyl-2-((2S)-2-(1-methyl-1H-pyrazol-4-yl)-4-morpholinyl)pteridine]: the EC50 is at most 50 nM; the “hTREM2 Emax” value is “+++ (Emax>150 and ≤250)”. For `Cc1ncc([C@H]2CN(c3nc(-c4ccc(Cl)cc4F)c4cc(C)c(C)nc4n3)CCO2)cn1` (single isomer, unassigned) [Example 107], the concentration giving a half-maximal response (EC50) was at most 50 nM; the “hTREM2 Emax” value is “+++ (Emax>150 and ≤250)”.

Consider `Cc1nc2nc(N3CCO[C@@H](c4cnn(C)c4)C3)nc(N3C[C@@H]4[C@H](C3)C4(F)F)c2nc1C` [Example 27, 4-((1R,5S)-6,6-difluoro-3-azabicyclo[3.1.0]hexan-3-yl)-6,7-dimethyl-2-((2S)-2-(1-methyl-1H-pyrazol-4-yl)-4-morpholinyl)pteridine], for which the EC50 was in the range of 500 to 3000 nM; the “hTREM2 Emax” value was “++ (Emax>100 and ≤150)”. For `Cc1nc2cc(N3CCO[C@@H](c4cnn(C)c4)C3)nc(-c3ccc(Cl)cc3F)c2nc1C` [Example 79, 5-(4-chloro-2-fluorophenyl)-2,3-dimethyl-7-((2S)-2-(1-methyl-1H-pyrazol-4-yl)-4-morpholinyl)pyrido[3,4-b]pyrazine], the EC50 was at most 50 nM and the “hTREM2 Emax” value is on record as “++++ (Emax>250)”. As to `Cc1cc([C@H]2CN(c3cc4nc(C)c(C)nc4c([C@H]4C[C@H](C(F)(F)F)C4)n3)CCO2)ccn1` [Example 82], the EC50 fell in the range of 50 to 500 nM; the “hTREM2 Emax” value is “+++ (Emax>150 and ≤250)”. Consider `Cc1ccc2c(n1)nc(N1CCO[C@@H](c3cnn(C4CC4)c3)C1)nc2[C@H]1C[C@H](C(F)(F)F)C1` [Example 98, 2-((2S)-2-(1-cyclopropyl-1H-pyrazol-4-yl)-4-morpholinyl)-7-methyl-4-(trans-3-(trifluoromethyl)cyclobutyl)pyrido[2,3-d]pyrimidine], for which the EC50 was 50 to 500 nM; the “hTREM2 Emax” value was “++ (Emax>100 and ≤150)”. With `Cc1cc(F)ccc1-c1nc(N2CCO[C@@H](c3cnn(C)c3)C2)nc2nc(C)c(C)nc12` [Example 59, 4-(4-fluoro-2-methylphenyl)-6,7-dimethyl-2-((2S)-2-(1-methyl-1H-pyrazol-4-yl)-4-morpholinyl)pteridine], the EC50 was 50 to 500 nM; the “hTREM2 Emax” value is “+++ (Emax>150 and ≤250)”. In the case of `Cc1ncc([C@@H]2C[C@H](c3nc(-c4ccc(Cl)cc4F)c4nc(C)c(C)nc4n3)CCO2)cn1` [Example 282, 4-(4-chloro-2-fluorophenyl)-6,7-dimethyl-2-((2S,4R)-2-(2-methylpyrimidin-5-yl)tetrahydro-2H-pyran-4-yl)pteridine], the EC50 is 500 to 3000 nM; the “hTREM2 Emax” value is “++ (Emax>100 and ≤150)”. With `Cc1ccc(-c2nc(N3CCO[C@@H](c4cnn(C)c4)C3)nc3nc(C)ccc23)c(F)c1` [Example 94, 4-(2-fluoro-4-methylphenyl)-7-methyl-2-((2S)-2-(1-methyl-1H-pyrazol-4-yl)-4-morpholinyl)pyrido[2,3-d]pyrimidine], the EC50 lay within 50 to 500 nM; the “hTREM2 Emax” value was “+++ (Emax>150 and ≤250)”.
